# Patent publication US9902752B2, “5-fluorouracil derivatives” (B. Braun Melsungen AG, priority 2012, dated 2018)
# Read-outs that look alike come from different tables or passages of the source. {19c} = modification given as compound (19c) in the publication; {25} = modification given as compound (25) in the publication; {Cy3} = Cy-3 fluorescent dye
# Assays:
# [1] = Lipophilicity as chromatographic mobility, RP-18 HPLC retention time; type: physicochemical; details: MeCN/0.1 M Et3NH+OAc− (35:65, v/v, pH 7.0)
# Experimental: RP-18 HPLC was carried out on a 250×4 mm RP-18 column (Merck, Germany) on a Merck-Hitachi HPLC apparatus with one pump (Model 655A-12) connected with a proportioning valve, a variable wavelength monitor (Model 655 A), a controller (Model L-5000), and an integrator (Model D-2000). Solvent: MeCN/0.1 M Et3NH^+OAc^− (35:65, v/v, pH 7.0).
# The lipophilicity of various 5-fluorouridine derivatives has been studied since the lipophilicity has inter alia an influence on the incorporation into oligo(2′-deoxynucleotides). The lipophilicity of the novel hydrophobic nucleoside derivatives has been studied in different by two ways: (i) log P values of the compounds were calculated (Table 4) and compared with those of the unmodified nucleoside 1a, (ii) the chromatographic mobilities of the compounds were measured in terms of retention times (tR in min) by RP-18 HPLC.
# [2] = pKBH+ value of the nucleoside; type: physicochemical
# [3] = 1N aq. HCl/MeCN, 1:1 (v/v); cited from earlier work
# [4] = Free diffusion times of oligonucleotides (without bilayer); type: physicochemical; details: diluted 50 nM oligomer solution
# Experimental: From the fluorescence signals of single molecules which pass the excitation volume, the diffusion constants can be calculated. In order to determine the diffusion times of the fluorescent oligonucleotides within and near the bilayer, they were measured at five different positions above, below and within the layer. At each point five measurements for 30 s, each, were taken. In summary, each measuring protocol was as follows: (i) a reference scan of the stable (empty) bilayer; (ii) addition of the sample with 25 min of incubation, followed by a scan series; (iii) additional scan series, each after a 1., 2., and 3. perfusion (60 s, each).
# The diffusion times (μs) of 41 and 42 were measured, both without and in the presence of an artificial bilayer. For the determination of the free diffusion times the corresponding oligomer solution (50 nM) was diluted so that in the confocal measuring volume (˜10^−15 l) only one fluorescent molecule was present. Each measurement was performed ten-fold for 30 s, each. In order to determine the diffusion times of the lipophilized oligonucleotides (41, 42) in the presence of a bilayer five measuring positions above, beneath and in the bilayer were chosen. This was necessary because the bilayer is floating within certain limits, which makes it difficult to target it most exactly (FIG. 5, measuring points 1-5). […]
# [5] = Diffusion times of oligonucleotides in the presence of a lipid bilayer; type: physicochemical
# Experimental: The incorporation of the oligonucleotides into artificial bilayers was performed at a lipid mixture of 1-palmitoyl-2-oleyl-sn-glycero-3-phosphoethanolamine (POPE) and 1-palmitoyl-2-oleyl-sn-glycero-3-phosphocholine (POPC) (8:2, w/w, 100 mg/ml of n-decane). For the preparation of the horizontal bilayers, planar slides (Ionovation GmbH, D-Osnabrück) were used. These slides contain chambers for cis- and trans compartments as well as electrode access (see FIG. 1). The main body of the slides contains of PTFE foil (thickness, 25 μm) with an aperture of ˜100 μm diameter. This foil separates the chamber into the cis- and trans compartments which are only connected by the aperture. After filling of the chamber with buffer (250 mM KCl, 10 mM MOPS/TRIS, pH 7), the cis- and trans compartments were linked with Ag/AgCl electrodes—embedded in agarose/3 M KCl). Then, a soln. of the POPC/POPE lipid mixture (0.2 μl) is applied onto the aperture of the PTFE foil using a Hamilton syringe (Hamilton, CH-Bonaduz). […] The formation of a stable bilayer was monitored both, optically using a laser scanning microscope (Insight Cell 3D, Evotec Technologies GmbH, D-Hamburg) as well as electrically by capacity measurements. […] The optical pictures of fluorescence fluctuations were obtained with a confocal laser scanning microscope (Insight Cell 3D, Evotec Technologies GmbH, D-Hamburg), equipped with a He—Ne laser (543 nm), a 40× water-immersion objective (UApo 340, 40×, NA=1.15, Olympus, 3-Tokyo), and an Avalanche photodiode detector (SPCM-AQR-13-FC, Perkin-Elmer Optoelectronics, Fremont, USA). Fluorescence irradiation was obtained with a laser power of 200±5 μW. […]
# From the fluorescence signals of single molecules which pass the excitation volume, the diffusion constants can be calculated. In order to determine the diffusion times of the fluorescent oligonucleotides within and near the bilayer, they were measured at five different positions above, below and within the layer. […]
# The diffusion times (μs) of 41 and 42 were measured, both without and in the presence of an artificial bilayer. […]
# [6] = Bilayer insertion of lipophilic oligonucleotides (fluorescence scans); type: physicochemical; details: for incorporation into the artificial bilayer: brightness of the layers, 25 min incubation; for retention in the bilayer after perfusions: perfusions of 60 s each
# Experimental: The incorporation of the oligonucleotides into artificial bilayers was performed at a lipid mixture of 1-palmitoyl-2-oleyl-sn-glycero-3-phosphoethanolamine (POPE) and 1-palmitoyl-2-oleyl-sn-glycero-3-phosphocholine (POPC) (8:2, w/w, 100 mg/ml of n-decane). For the preparation of the horizontal bilayers, planar slides (Ionovation GmbH, D-Osnabrück) were used. These slides contain chambers for cis- and trans compartments as well as electrode access (see FIG. 1). The main body of the slides contains of PTFE foil (thickness, 25 μm) with an aperture of ˜100 μm diameter. This foil separates the chamber into the cis- and trans compartments which are only connected by the aperture. After filling of the chamber with buffer (250 mM KCl, 10 mM MOPS/TRIS, pH 7), the cis- and trans compartments were linked with Ag/AgCl electrodes—embedded in agarose/3 M KCl). Then, a soln. of the POPC/POPE lipid mixture (0.2 μl) is applied onto the aperture of the PTFE foil using a Hamilton syringe (Hamilton, CH-Bonaduz). A small Faraday cage shields the bilayer and the electrodes from HF-electrical noise. Next, a bilayer is made-up automatically using a perfusion system (Bilayer Explorer V01, Ionovation GmbH, D-Osnabrück). The formation of a stable bilayer was monitored both, optically using a laser scanning microscope (Insight Cell 3D, Evotec Technologies GmbH, D-Hamburg) as well as electrically by capacity measurements. When a stable bilayer had been obtained (capacity, […]), the corresponding oligonucleotide soln. (50 nM, 4 μl) was injected into the cis compartment of the chip. During an incubation time of 25 min the intactness of the bilayer was electro-physiologically controlled using a headstage EPC 10 USB with a patch clamp amplifier (software: Patchmaster, HEKA Elektronik Dr. Schulze GmbH, D-Lambrecht). The optical pictures of fluorescence fluctuations were obtained with a confocal laser scanning microscope (Insight Cell 3D, Evotec Technologies GmbH, D-Hamburg), equipped with a He—Ne laser (543 nm), a 40× water-immersion objective (UApo 340, 40×, NA=1.15, Olympus, 3-Tokyo), and an Avalanche photodiode detector (SPCM-AQR-13-FC, Perkin-Elmer Optoelectronics, Fremont, USA). Fluorescence irradiation was obtained with a laser power of 200±5 μW. 2D and 3D scans were performed by scanning the confocal spot in XY direction with a rotating beam scanner and movement of the objective in Z direction. The movement in both directions was piezo controlled which allows a nano-meter precise positioning. For the 2D pictures (Z-scans, FIGS. 2 and 3) the confocal plane was moved in 100 nm steps. […]
# [7] = cited from earlier work
# [8] = measuring point 3, after 1. perfusion
molecule,measurement,setting,value
"O=c1[nH]c(=O)n([C@@H]2O[C@H](CO)[C@@H](O)[C@H]2O)cc1F [Compound 1a, 5-Fluorouridine, reference compound]",RP-18 HPLC tR,[1],1 min
same,pKBH+,[2],8.0±0.1
"CCCC1(CCC)OC2[C@@H](O1)[C@@H](CO)O[C@H]2n1cc(F)c(=O)[nH]c1=O (stereo partly shown) [Compound 19b, 5-Fluoro-2,3′-O-(1-propylbutylidene)uridine]","acidic stability at the ketal group, T",[3],130 min
"CC(C)=CCC/C(C)=C/CC/C(C)=C/Cn1c(=O)c(F)cn([C@@H]2O[C@H](CO)[C@@H](O)[C@H]2O)c1=O [Compound 23, 1-((2R,3R,4S,5R)-3,4-dihydroxy-5-(hydroxymethyl)tetrahydrofuran-2-yl)-5-fluoro-3-((2E,6E)-3,7,11-trimethyldodeca-2,6,10-trien-1-yl)pyrimidine-2,4(1H,3H)-dione]",RP-18 HPLC tR,[1],27 min
"CC1(C)O[C@@H]2[C@H](O1)[C@@H](CO)O[C@H]2n1cc(F)c(=O)[nH]c1=O [Compound 19a, 5-Fluoro-1-((3aR,4R,6R,6aR)-6-(hydroxymethyl)-2,2-dimethyltetrahydrofuro[3,4-d][1,3]dioxol-4-yl)pyrimidine-2,4(1H,3H)-dione]",melting point,,196 to 197 °C
"CCCC1(CCC)OC2C(O1)[C@@H](CO)O[C@H]2n1cc(F)c(=O)n(C/C=C(\C)CC/C=C(\C)CCC=C(C)C)c1=O (stereo partly drawn) [Compound 25, 5-Fluoro-1-((3aR,4R,6R,6aR)-6-(hydroxymethyl)-2,2-dipropyitetrahydrofuro-[3,4-d][1,3]dioxol-4-yl)-3-((2E,6E)-3,7,11-trimethyldodeca-2,6,10-trien-1-yl)pyrimidine-2,4(1H,3H)-dione]",RP-18 HPLC tR,[1],87 min
"5′-d[(19c)-(Cy-3)-TAG GTC AAT ACT]. (DNA TAGGTCAATACT; DNA, 5' {19c}-{Cy3}, backbone not given here) [Oligomer 42]",Free diffusion time,[4],390.39 ± 249.05 μs
same,Diffusion time in the presence of a bilayer,[5]; [8],"75952 ± 8201, after 1 perfusion μs"
same,Diffusion time in the presence of a bilayer,"[5]; measuring point 3, after 3. perfusion","19891 ± 3266, after 3. perfusion μs"
same,incorporation into the artificial bilayer,[6],better inserted
same,retention in the bilayer after perfusions,[6],do not lead to a significant removal
"CC(C)=CCC/C(C)=C/CC/C(C)=C/Cn1c(=O)c(F)cn([C@@H]2O[C@H](CO)[C@H]3OC(C)(C)O[C@H]32)c1=O [Compound 24, 5-Fluoro-1-((3aR,4R,6R,6aR)-6-(hydroxymethyl)-2,2-dimethyltetrahydrofuro-[3,4-d][1,3]dioxol-4-yl)-3-((2E,6E)-3,7,11-trimethyldodeca-2,6,10-trien-1-yl)pyrimidine-2,4(1H,3H)-dione]",RP-18 HPLC tR,[1],24 min
"CCCCCCCCCC1(CCCCCCCCC)O[C@@H]2[C@H](O1)[C@@H](CO)O[C@H]2n1cc(F)c(=O)[nH]c1=O [Compound 19c, 5-Fluoro-1-((3aR,4R,6R,6aR)-6-(hydroxymethyl)-2,2-dinonyltetrahydrofuro[3,4-d][1,3]dioxol-4-yl)pyrimidine-2,4(1H,3H)-dione]",RP-18 HPLC tR,[1],>600 min
"5′-d[(25)-(Cy-3)-TAG GTC AAT ACT] (DNA TAGGTCAATACT; DNA, 5' {25}-{Cy3}, backbone not given here) [Oligomer 41]",Free diffusion time,[4],279.67 ± 141.08 μs
same,Diffusion time in the presence of a bilayer,[5]; [8],"33547 ± 16751, after 1. perfusion μs"
same,incorporation into the artificial bilayer,[6],successfully incorporated
same,retention in the bilayer after perfusions,[6],brightness of the layer decreases after two perfusions
"O=c1[nH]cc(F)c(=O)[nH]1 [fluorouracil, 5-fluorouracil]",half life,"[7]; with uracil (UFT, DPD inhibition)",10 to 14 h
same,half life,[7]; without uracil,0.167 to 0.5 h
